Measurements reported in US9808511B2, “Method for treating alopecia with B-type natriuretic peptide” (IGISU Co., Ltd., priority 2011, dated 2017).
Bridges are numbered along the chain shown (N, C = ends). Where no end group is shown, it is not given here.

Experiments:
[1] = test system: androgenetic alopecia; conditions: androgenetic alopecia in males; cited from earlier work
[2] = test system: androgenetic alopecia; test: Case tests: application to hair loss sites of androgenetic alopecia patients; format: in vivo, human
Experimental: (§1) The test subjects were patients with alopecia areata, androgenetic alopecia, postpartum alopecia, female pattern alopecia, alopecia pityroides, and senile alopecia. Diagnosis and treatment of these test subjects were carried out by the present inventors as physicians.
(§2) Clinical classification of alopecia was carried out in accordance with the Classification of the Japanese Dermatological Association, and evaluation of the severity of alopecia areata was carried out in accordance with the above-mentioned ‘USA Alopecia Areata Evaluation Guidelines’, the area of hair loss being classified using 6 grades of S0 to S5 and the hair loss site being classified using 3 grades of B0 to B2.
In general, in order to confirm the effect of an external medicine in an individual case, a method involving separate left and right applications is desirable. […] With regard to the test of the preparation of the present invention, a preparatory test was carried out in accordance with the separate left and right applications method. However, taking into consideration medical ethics, the preparatory test in accordance with the separate left and right applications method was minimized, and when a preparatory test was not carried out, a therapeutic effect was evaluated by comparison between that before application and that after application.
Prior to administration of the ANP gel, BNP gel, CNP gel, BNP ointment, and CNP ointment of the present invention, as is routine for dermatological diagnosis and treatment, the test subjects were interviewed regarding age, gender, history of disease, and family history of disease; when an allergic predisposition was suspected, a scratch test against the main allergens and an evaluation thereof were carried out.
(§3) In order to carry out evaluation objectively, photographs before and after application of the NP preparation were recorded in all cases. Photographs of some of these cases are shown in the drawings.

[3] = test system: alopecia; test: Conclusions from case test results (all types of alopecia); format: in vivo, human; conditions: external application; for Adverse events resulting from application: all cases
Experimental: as §1
(§4) In general, in order to confirm the effect of an external medicine in an individual case, a method involving separate left and right applications is desirable. The separate left and right application method is a method in which, for example, an external medicine containing an active ingredient to be tested is applied to the left-hand side of an affected site, and an external medicine not containing the active ingredient is applied to the right-hand side, thus enabling a therapeutic effect to be confirmed. With regard to the test of the preparation of the present invention, a preparatory test was carried out in accordance with the separate left and right applications method. However, taking into consideration medical ethics, the preparatory test in accordance with the separate left and right applications method was minimized, and when a preparatory test was not carried out, a therapeutic effect was evaluated by comparison between that before application and that after application.
as §3

[4] = test system: thin head hair; conditions: applied twice a day after hair washing; cited from earlier work
[5] = test system: alopecia areata; test: Case tests: application to bald areas of alopecia areata patients; format: in vivo, human; conditions: previous treatment of the test subject (history); one value per case
Experimental: as §1, §2
In general, in order to confirm the effect of an external medicine in an individual case, a method involving separate left and right applications is desirable. […] However, taking into consideration medical ethics, the preparatory test in accordance with the separate left and right applications method was minimized, and when a preparatory test was not carried out, a therapeutic effect was evaluated by comparison between that before application and that after application. […]
(§5) In order to carry out evaluation objectively, photographs before and after application of the NP preparation were recorded in all cases. […]

[6] = test system: alopecia pityroides; test: Case tests: application to hair loss sites of alopecia pityroides patients; format: in vivo, human; conditions: previous treatment
Experimental: as §1, §4
Prior to administration of the ANP gel, BNP gel, CNP gel, BNP ointment, and CNP ointment of the present invention, as is routine for dermatological diagnosis and treatment, the test subjects were interviewed regarding age, gender, history of disease, and family history of disease; when an allergic predisposition was suspected, a scratch test against the main allergens and an evaluation thereof were carried out. In dermatological diagnosis and treatment, since there are a relatively large number of patients who have strong immunoreactivity toward a specific allergen, or a disease such as atopic dermatitis that is suspected to be related to having an allergic predisposition, in order to assist diagnosis, an interview with respect to family history and previous history of allergic disease in addition to gender and age, and a scratch test toward the main allergens, are widely carried out as simple supplemental test methods.
Table 1 to Table 23 show the results of interviews with the test subjects and the results of the scratch test together with evaluation of the diagnostic findings and symptoms of the test subjects carried out in [Example 1] above.
as §3

[7] = test system: female pattern alopecia; test: Case tests: application to thinning hair sites of female pattern alopecia patients; format: in vivo, human; conditions: previous treatment
Experimental: as §1
as §4, with “application. […]” for “application.”
as §5

[8] = test system: seborrheic alopecia; test: Case tests: application to hair loss sites of seborrheic alopecia patients; format: in vivo, human; conditions: previous treatment
[9] = test system: postpartum alopecia; test: Case tests: application to hair loss sites of postpartum alopecia patients; format: in vivo, human; conditions: case C18
Experimental: as §1
as §4, with “application. […]” for “application.”
as §5

[10] = test system: cancer chemotherapy drug-induced alopecia; test: Case tests: application to hair loss sites of cancer chemotherapy drug-induced alopecia patients; format: in vivo, human
[11] = case C35, previous treatment (interview)
[12] = previous treatment of the test subject (history), one value per case

CC(C)(C)NC(=O)[C@H]1CC[C@H]2[C@@H]3CC[C@H]4NC(=O)C=C[C@]4(C)[C@H]3CC[C@]12C [Finasteride, finasteride]
Proportion of patients improved [1]: about ¼

O=C(O)CCCC[C@@H]1SC[C@@H]2NC(=O)N[C@@H]21 [biotin]
Effect of conventional preparation ([2]; previous treatment, cases C39, C26, B29): there had been no effect

human ANP(1-28) (SLRRSSCFGGRMDRIGAQSGLGCNSFRY; disulfide 7-23; listed as Homo sapiens)
Therapeutic effect, conclusions from case test results ([3]; agent containing the peptide as an active ingredient): effective only for alopecia in which there was no erythema, scale, seborrheic desquamation, etc. on the scalp
Hair growth [4]: downy hair-like hair growth was observed on the frontal region with 1 week of ANP administration

CC[C@H](C)[C@@H]1NC(=O)[C@H](CCCNC(=N)N)NC(=O)[C@H](CC(=O)O)NC(=O)[C@H](CC(C)C)NC(=O)[C@H](CCCCN)NC(=O)[C@H](CC(C)C)NC(=O)CNC(=O)[C@H](Cc2ccccc2)NC(=O)[C@@H](NC(=O)CNC(=O)[C@H](CCCCN)NC(=O)[C@H](CO)NC(=O)[C@H](CC(C)C)NC(=O)CN)CSSC[C@@H](C(=O)O)NC(=O)CNC(=O)[C@H](CC(C)C)NC(=O)CNC(=O)[C@H](CO)NC(=O)[C@H](CCSC)NC(=O)[C@H](CO)NC(=O)CNC1=O [CNP, human CNP-22]
Adverse events resulting from application [3]: did not exhibit any adverse events such as local symptoms of irritation, skin atrophy, or an itching sensation

COC(=O)CCC[N+](C)(C)C.[Cl-] [carpronium chloride]
Effect of carpronium chloride [5]: No effect
Effect of carpronium chloride ([6]; case A13 (=A6, C3, C4)): No effect
Effect of carpronium chloride ([6]; case C30): No effect
Effect of carpronium chloride ([6]; case C33): No effect
Effect of carpronium chloride ([7]; case C19): No effect
Effect of conventional preparation ([7]; cases B20, C19): there had been no effect
Effect of carpronium chloride ([8]; case B21 (=A8, B8)): No effect
Effect of carpronium chloride ([9]; previous treatment): No effect
Effect of conventional preparation ([9]; previous treatment for 5 months): thinning hair on the crown had not improved
Effect of carpronium chloride [10, 11]: No effect
Effect of conventional preparation ([10]; case C35, previous application for 6 months): There had been no effect

COc1ccc2cc1Oc1ccc(cc1)C[C@H]1c3c(cc4c(c3Oc3cc5c(cc3OC)CCN(C)[C@@H]5C2)OCO4)CCN1C [cepharanthin]
Effect of cepharanthin [5]: there had been no therapeutic effect
Effect of cepharanthin [10, 11]: No effect

CC1(C)[C@@H](O)CC[C@]2(C)[C@H]3C(=O)C=C4[C@@H]5C[C@@](C)(C(=O)O)CC[C@]5(C)CC[C@@]4(C)[C@]3(C)CC[C@@H]12 [glycyrrhetinic acid]
Effect of glycyrrhetinic acid ([8]; case A12 (=A9, B11)): No effect
Effect of glycyrrhetinic acid ([8]; case B22 (=A9, B11)): No effect
Effect of glycyrrhetinic acid [2, 12]: there had been no effect

Nc1cc(N2CCCCC2)nc(N)[n+]1[O-] [minoxidil]
Effect of minoxidil ([6]; case B28): No effect
Effect of minoxidil ([8]; case A12 (=A9, B11)): No effect
Effect of minoxidil ([8]; case B22 (=A9, B11)): No effect
Effect of minoxidil ([2]; case B9, previous treatment): No effect
Effect of minoxidil ([2]; case C16, previous treatment): No effect
Effect of minoxidil [2, 12]: No effect

CC[C@H](C)[C@@H]1NC(=O)[C@H](CCCNC(=N)N)NC(=O)[C@H](CC(=O)O)NC(=O)[C@H](CCSC)NC(=O)[C@H](CCCCN)NC(=O)[C@H](CCCNC(=N)N)NC(=O)CNC(=O)[C@H](Cc2ccccc2)NC(=O)[C@@H](NC(=O)CNC(=O)[C@H](CO)NC(=O)CNC(=O)[C@H](CCC(N)=O)NC(=O)[C@@H](NC(=O)[C@H](CCSC)NC(=O)[C@H](CCCCN)NC(=O)[C@@H]2CCCN2C(=O)[C@@H](N)CO)C(C)C)CSSC[C@@H](C(=O)N[C@@H](CCCCN)C(=O)N[C@H](C(=O)N[C@@H](CC(C)C)C(=O)N[C@@H](CCCN=C(N)N)C(=O)N[C@@H](CCCN=C(N)N)C(=O)N[C@@H](Cc2cnc[nH]2)C(=O)O)C(C)C)NC(=O)CNC(=O)[C@H](CC(C)C)NC(=O)CNC(=O)[C@H](CO)NC(=O)[C@H](CO)NC(=O)[C@H](CO)NC(=O)[C@H](CO)NC1=O [BNP, human BNP-32]
Adverse events resulting from application [3]: did not exhibit any adverse events such as local symptoms of irritation, skin atrophy, or an itching sensation
